Assay results: paper PMC2195584 (The Journal of Experimental Medicine, 1999)

What was measured:
[1] = tested on: c-fos promoter in Jurkat cells; test: c-fos luciferase reporter, Jurkat cells; type: cell-based; conditions: presence and absence of CD28 antibodies, vs wild-type mCD28
[2] = tested on: Lymph node T cells from CD28-deficient mice; test: Proliferation of retrovirally reconstituted T cells from CD28-deficient mice; type: cell-based, mouse; conditions: single stimulus, anti-CD3 or PMA alone; 36-h culture; quadruplicate
[3] = tested on: c-Src; conditions: coexpression in 293 cells; cited from earlier work

mutated form of mCD28: CD28 with alanines substituted for prolines 187 and 190
induction of c-fos promoter (in words) [1]: significantly impaired in its ability to induce the c-fos promoter

CCCCCCCCCCCCCC(=O)O[C@@H]1[C@@H](C)[C@@]2(O)[C@@H](C=C(CO)C[C@]3(O)C(=O)C(C)=C[C@@H]23)[C@@H]2C(C)(C)[C@]12OC(C)=O [PMA]
proliferation ([3H]thymidine), control retrovirus [2]: proliferated weakly

B1: SIN: SH3 binding protein, SIN (protein, UniProt Q64355 1-560, looked up)
Embryonal Fyn-associated …: MAIATSAQLARALYDNTAESPQELSFRRGDVLRVLQREGAGGLDGWCLCSLHGQQGIVPANRVKLLPAGPAPKPSLCPASPTQPGSSCPTPERGCEEQEVYVIPPPARPCSASGLPARSCSPSSDSIYKVPRGNGMQLTASRDVAEVYDVPPNILRAPSSCPYDSPASFSCPVAPVVPQPPREDEAPYDVPLALKPPAELERDPEWEGGREPGPPLYAAPSNLKRASALLNLYEAPEELLANGESRDADEGIYDVPLLGPEPPSPEPPVASSSTDLDTVAQLPTRSSPPQHRPRLPSTESLSRRPLPALPVSEAPAPSPAPSPAPGRKGSIQDRPLPPPPPCLPGYGGLKPEGDPECREVANDPAGPHNEYEGIPMAEEYDYVHLKGVDTAQGSRPLDKAFPVDPELLERGLAERKEALSPEEPLVLSTGDLQLLHFYAGQCQSHYSALQAAVAALVASTQANQPPCLFVPHGKRVVVAAHRLVFVGDTLGRLAASAALRAQVGAAGTMLAQTLRATVLAVKGAALGYPSDTAVQEMARCVAELAGQALRFTTLLDGLLP
c-Src kinase activity induction [3]: can be induced
